Results on 2 compounds are retold here after article PMC8085340, “Inhibiting Pyridoxal Kinase of Entamoeba histolytica Is Lethal for This Pathogen” (Frontiers in Cellular and Infection Microbiology, 2021).

The experiment addresses T1, EhPLK (pyridoxal kinase) (Entamoeba histolytica, UniProt C4LVZ4).
T1 construct: gene EHI_126090; recombinant histidine-tagged EhPLK
T1 sequence (C4LVZ4 1-279): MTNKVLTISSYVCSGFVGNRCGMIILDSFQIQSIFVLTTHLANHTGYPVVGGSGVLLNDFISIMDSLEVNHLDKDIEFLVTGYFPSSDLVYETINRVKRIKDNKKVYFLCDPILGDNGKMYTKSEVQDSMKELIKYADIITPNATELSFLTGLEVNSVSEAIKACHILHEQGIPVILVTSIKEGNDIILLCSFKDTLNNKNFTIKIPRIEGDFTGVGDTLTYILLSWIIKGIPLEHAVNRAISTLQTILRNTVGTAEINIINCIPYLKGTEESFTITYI
The experiment can be described thus: spectrophotometric PLP formation assay at […] nm with purified enzyme; partial inhibition (maximum […]). It counts as biochemical.

Take `O=S1(=O)CCCN1c1ccc(Nc2ncnc3ccsc23)cc1` [compound 1, N-[4-(1,1-dioxo-1,2-thiazolidin-2-yl)phenyl]thieno[3,2-d]pyrimidin-4-amine]: the IC50 was about 250 µM.

The compound `O=S1(=O)CCCN1c1ccc(Nc2ncnc3sccc23)cc1` [compound 2, N-[4-(1,1-dioxo-1,2-thiazolidin-2-yl)phenyl]thieno[2,3-d]pyrimidin-4-amine] displayed an IC50 of about 100 µM.

As usually defined, the IC50 is the concentration needed to halve the response being measured. The low end stands for greater potency, the high end for weaker potency.
